Data as given in ChEMBL document CHEMBL1201862, “PubChem BioAssay data set” (2004).
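All cell lines were grown in 96-well plates and treated with compound for 48 hours. GI50 marks 50% less growth.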 The source made the active and inactive calls. Cut-off read from the data, not from the text of the source: active = GI50 up to about 1.1 µM and inactive = higher.

How the values were obtained:
Assay in all cases: NCI tumour cell line growth inhibition, 48 h
786-0 = tested on: 786-0
A498 = tested on: A498
CAKI-1 = tested on: CAKI-1
DMS-114 = tested on: DMS-114
DMS-273 = tested on: DMS-273
HCC 2998 = tested on: HCC 2998
HOP-92 = tested on: HOP-92
M14 = tested on: M14
M19-MEL = tested on: M19-MEL
Malme-3M = tested on: Malme-3M
NCI-H226 = tested on: NCI-H226
NCI-H522 = tested on: NCI-H522
OVCAR-4 = tested on: OVCAR-4
SK-OV-3 = tested on: SK-OV-3
TK-10 = tested on: TK-10
NCI/ADR-RES = tested on: NCI/ADR-RES

Measured: GI50

CC(C)=CC1(C)/C(=N\O)C(C)(CC(C)C)C(=O)N1O (centres undefined)
inactive: 786-0 > 100 µM | A498 > 100 µM | CAKI-1 > 100 µM | DMS-114 > 100 µM | DMS-273 > 100 µM | HCC 2998 > 100 µM | HOP-92 > 100 µM | M14 > 100 µM | M19-MEL > 100 µM | Malme-3M > 100 µM | NCI-H226 > 100 µM | NCI-H522 > 100 µM | OVCAR-4 > 100 µM | SK-OV-3 > 100 µM | TK-10 > 100 µM

N#C/C(=C1/Sc2c(nc[nH]c2=O)N1c1ccccc1)c1nc2ccccc2[nH]1
inactive: A498 > 100 µM | CAKI-1 > 100 µM | DMS-114 > 100 µM | DMS-273 > 100 µM | HCC 2998 > 100 µM | HOP-92 > 100 µM | M14 > 100 µM | M19-MEL > 100 µM | Malme-3M > 100 µM | NCI-H522 > 100 µM | OVCAR-4 > 100 µM | SK-OV-3 > 100 µM | TK-10 > 100 µM

C/C=C/C1=CC(=O)C(O)C1O (centres undefined)
inactive: A498 8.28 µM | CAKI-1 14.5 µM | DMS-114 22 µM | DMS-273 25.9 µM | HCC 2998 27.5 µM | HOP-92 27.2 µM | M19-MEL 26.7 µM | Malme-3M 27.1 µM | NCI-H226 24.1 µM | NCI-H522 5.86 µM | NCI/ADR-RES 25.5 µM | OVCAR-4 37.1 µM | SK-OV-3 40.7 µM

O=C(c1nc2ccc(Cl)cc2nc1O)C(O)c1ccccc1 (centres undefined)
inactive: 786-0 > 100 µM | A498 14.8 µM | CAKI-1 65.5 µM | DMS-114 56.5 µM | DMS-273 98.6 µM | HCC 2998 > 100 µM | HOP-92 18.2 µM | M14 > 100 µM | M19-MEL > 100 µM | Malme-3M > 100 µM | NCI-H226 84.7 µM | NCI-H522 10.9 µM | OVCAR-4 14.3 µM | SK-OV-3 > 100 µM | TK-10 > 100 µM

c1ccc2c(c1)CCCC/C2=N/OCC1CO1 (centres undefined)
inactive: A498 > 100 µM | DMS-114 34.8 µM | DMS-273 53.1 µM | HCC 2998 > 100 µM | HOP-92 22.3 µM | Malme-3M 67.6 µM | NCI-H226 35.3 µM | TK-10 > 100 µM

CCCCCCCSc1nc2c(C(=O)OCC)ncn2c2ccccc12
inactive: DMS-114 > 100 µM | DMS-273 > 100 µM | HCC 2998 > 100 µM | HOP-92 25.1 µM | M14 > 100 µM | M19-MEL > 100 µM | Malme-3M > 100 µM | NCI-H226 > 100 µM | SK-OV-3 > 100 µM | TK-10 > 100 µM

Cc1csc(/N=C(/NCCN2CCOCC2)Nc2nc(C)cs2)n1
inactive: A498 > 57.9 µM | CAKI-1 > 76.2 µM | DMS-114 > 100 µM | DMS-273 > 100 µM | HCC 2998 > 100 µM | HOP-92 > 88.9 µM | M19-MEL > 100 µM | Malme-3M > 100 µM | NCI-H226 > 100 µM | NCI-H522 > 100 µM | NCI/ADR-RES > 100 µM | OVCAR-4 > 100 µM | SK-OV-3 > 100 µM

C=C1[C@@H]2CCC(C)(C)[C@H]1CCC(=O)[C@@H]2C(=O)OC
inactive: 786-0 > 100 µM | A498 > 100 µM | DMS-114 > 100 µM | DMS-273 > 100 µM | HCC 2998 > 100 µM | M14 > 100 µM | M19-MEL > 100 µM | Malme-3M > 100 µM | NCI-H226 > 100 µM | OVCAR-4 > 100 µM | TK-10 > 100 µM

C[C@H](O)C(=O)SC[C@H](NC(=O)CC[C@@H](N)C(=O)O)C(=O)NCC(=O)O
inactive: CAKI-1 > 100 µM | DMS-114 > 100 µM | DMS-273 > 100 µM | HCC 2998 > 100 µM | HOP-92 > 100 µM | M14 > 100 µM | M19-MEL > 100 µM | Malme-3M > 100 µM | NCI-H226 > 100 µM | NCI-H522 > 100 µM | OVCAR-4 > 100 µM | SK-OV-3 > 100 µM | TK-10 > 100 µM

COC(=O)C(C/C=C(\C)c1ccc(Cl)cc1)C(C)=O (centres undefined)
inactive: A498 34.4 µM | DMS-114 19.9 µM | DMS-273 32.7 µM | HCC 2998 75.9 µM | HOP-92 19.5 µM | M19-MEL 32.7 µM | Malme-3M 40.3 µM | NCI-H226 24.6 µM | NCI-H522 22.5 µM | NCI/ADR-RES 23.7 µM | OVCAR-4 27.2 µM | SK-OV-3 > 100 µM

C=CC(C)C1(CCCOCc2ccccc2)C(=S)N2CCC3(CC24CCCC14)OCCO3 (centres undefined)
inactive: A498 5.01 µM | CAKI-1 > 100 µM | DMS-114 4.97 µM | DMS-273 10.3 µM | HCC 2998 56.1 µM | M19-MEL 25.6 µM | Malme-3M 47.5 µM | NCI-H226 36.6 µM | NCI-H522 7.31 µM | OVCAR-4 9.46 µM | SK-OV-3 > 100 µM | TK-10 97.3 µM

CCO[C@]12C[C@H](OC)[C@@]3(O)CC(C1[C@H]3O)C13C4C2[C@H](OC)C1[C@](COC)(CN4CC)[C@H](O)C[C@@H]3OC (some centres undefined)
inactive: DMS-114 > 100 µM | DMS-273 > 100 µM | HCC 2998 > 100 µM | M14 > 100 µM | M19-MEL > 100 µM | NCI-H226 > 100 µM | OVCAR-4 > 100 µM | SK-OV-3 > 100 µM | TK-10 > 100 µM
